The record followed here is paper PMC7250802, “Initial Evaluation of AF78: a Rationally Designed Fluorine-18-Labelled PET Radiotracer Targeting Norepinephrine Transporter” (Molecular Imaging and Biology, 2019).

In this assay the target is T1, norepinephrine transporter (NET) (Homo sapiens, UniProt P23975).
T1 construct: gene SLC6A2
Put plainly: competitive inhibition of […]AF78 uptake in SK-N-SH cells ([…] against […]MIBG). The format is cell-based.

Each structure is given as a SMILES string.

T1 sequence (P23975 whole entry): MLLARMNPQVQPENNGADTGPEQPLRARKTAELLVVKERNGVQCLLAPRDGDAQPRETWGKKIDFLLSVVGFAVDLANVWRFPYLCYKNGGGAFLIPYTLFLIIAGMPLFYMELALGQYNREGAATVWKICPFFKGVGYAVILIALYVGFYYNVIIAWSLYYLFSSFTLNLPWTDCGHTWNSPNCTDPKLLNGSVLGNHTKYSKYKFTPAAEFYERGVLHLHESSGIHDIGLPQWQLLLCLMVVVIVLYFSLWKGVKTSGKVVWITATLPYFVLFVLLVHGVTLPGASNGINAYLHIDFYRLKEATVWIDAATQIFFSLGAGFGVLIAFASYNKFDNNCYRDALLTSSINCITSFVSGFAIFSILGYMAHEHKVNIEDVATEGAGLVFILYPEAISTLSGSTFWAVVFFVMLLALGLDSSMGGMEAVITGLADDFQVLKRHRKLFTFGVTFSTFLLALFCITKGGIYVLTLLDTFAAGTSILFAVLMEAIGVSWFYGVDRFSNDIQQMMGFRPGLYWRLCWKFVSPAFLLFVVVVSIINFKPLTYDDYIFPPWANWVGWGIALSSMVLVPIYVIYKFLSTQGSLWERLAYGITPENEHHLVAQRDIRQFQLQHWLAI

Broadly, the IC50 is the midpoint of a concentration-inhibition curve. A low value points to greater potency. For `N=C(N)NCCc1ccc(F)c(O)c1` [4F-MHPG, 4-[^18F]fluoro-3-hydroxyphenethylguanidine], the IC50 was 850 ± 630 nM.
